Test results as given in patent publication US12077503B2, “Substituted cyclic amides and their use as herbicides” (FMC CORPORATION, priority 2015, dated 2024).

Columns and labels:
Assay in all cases: Test C preemergence
Assay type in all cases: in vivo
Details in all cases: scale 0 to 100, 0 no effect, 100 complete control
[1] = test system: crabgrass, large (large crabgrass, Digitaria sanguinalis)
Excerpt: (§1) Seeds of plant species selected from blackgrass (Alopecurus myosuroides), ryegrass, Italian (Italian ryegrass, Lolium multiflorum), wheat (winter wheat, Triticum aestivum), Galium (catchweed bedstraw, Galium aparine), corn (Zea mays), crabgrass, large (large crabgrass, Digitaria sanguinalis), foxtail, giant (giant foxtail, Setaria faberii), johnsongrass (Sorghum halepense), lambsquarters (Chenopodium album), morningglory (Ipomoea coccinea), nutsedge, yellow (yellow nutsedge, Cyperus esculentus), pigweed (Amaranthus retroflexus), ragweed (common ragweed, Ambrosia elatior), soybean (Glycine max), barnyardgrass (Echinochloa crus-galli), oilseed rape (Brassica napus), waterhemp (common waterhemp, Amaranthus rudis) and velvetleaf (Abutilon theophrasti) were planted into a blend of loam soil and sand and treated preemergence with test chemicals formulated in a non-phytotoxic solvent mixture which included a surfactant.
(§2) At the same time, plants selected from these crop and weed species and also Kochia (Kochia scoparia), oat, wild (wild oat, Avena fatua), and chickweed (common chickweed, Stellaria media) were planted in pots containing Sunshine Redi-Earth® planting medium comprising spaghnum peat moss, vermiculite, starter nutrients and dolomitic limestone and treated with postemergence applications of test chemicals formulated in the same manner. Plants ranged in height from 2 to 18 cm (1- to 4-leaf stage) for postemergence treatments. Treated plants and controls were maintained in a greenhouse for 13 to 15 d, after which time all species were compared to controls and visually evaluated. Plant response ratings, summarized in Table C, are based on a scale of 0 to 100 where 0 is no effect and 100 is complete control. A dash (-) response means no test result.

[2] = test system: ryegrass, Italian (Italian ryegrass, Lolium multiflorum)
Excerpt: as §1, §2

[3] = test system: lambsquarters (Chenopodium album)
Excerpt: as §1, §2

[4] = test system: wheat (winter wheat, Triticum aestivum)
Excerpt: as §1, §2

[5] = test system: pigweed (Amaranthus retroflexus)
Excerpt: as §1, §2

soybean (Glycine max) = test system: soybean (Glycine max)
Excerpt: as §1, §2

[6] = test system: blackgrass (Alopecurus myosuroides)
Excerpt: as §1, §2

[7] = test system: velvetleaf (Abutilon theophrasti)
Excerpt: as §1, §2

[8] = test system: waterhemp (common waterhemp, Amaranthus rudis)
Excerpt: as §1, §2

corn (Zea mays) = test system: corn (Zea mays)
Excerpt: as §1, §2

[9] = test system: ragweed (common ragweed, Ambrosia elatior)
Excerpt: as §1, §2

[10] = test system: oilseed rape (Brassica napus)
Excerpt: as §1, §2

[11] = test system: Galium (catchweed bedstraw, Galium aparine)
Excerpt: as §1, §2

[12] = test system: morningglory (Ipomoea coccinea)
Excerpt: as §1, §2

[13] = test system: foxtail, giant (giant foxtail, Setaria faberii)
Excerpt: as §1, §2

[14] = test system: barnyardgrass (Echinochloa crus-galli)
Excerpt: as §1, §2

[15] = test system: nutsedge, yellow (yellow nutsedge, Cyperus esculentus)
Excerpt: as §1, §2

CN1CC(c2ccc(C(F)(F)F)c(F)c2)C(C(=O)Nc2cccc(F)c2F)C1=O (stereo not drawn) [Compound 396]
80: Plant response rating, Ryegrass, Italian ([2]; 250 g ai/ha) | Plant response rating, Pigweed ([5]; 62 g ai/ha) | Plant response rating, Blackgrass ([6]; 125 g ai/ha) | Plant response rating, Blackgrass ([6]; 250 g ai/ha) | Plant response rating, Ragweed ([9]; 62 g ai/ha) | Plant response rating, Oilseed Rape ([10]; 125 g ai/ha)
10: Plant response rating, Wheat ([4]; 62 g ai/ha) | Plant response rating, Morningglory ([12]; 31 g ai/ha)
65: Plant response rating, Velvetleaf ([7]; 125 g ai/ha) | Plant response rating, Corn (corn (Zea mays); 125 g ai/ha) | Plant response rating, Ragweed ([9]; 31 g ai/ha)
30: Plant response rating, Ryegrass, Italian ([2]; 125 g ai/ha) | Plant response rating, Oilseed Rape ([10]; 31 g ai/ha) | Plant response rating, Nutsedge, Yellow ([15]; 125 g ai/ha)
95: Plant response rating, Crabgrass, Large ([1]; 31 g ai/ha) | Plant response rating, Pigweed ([5]; 250 g ai/ha) | Plant response rating, Waterhemp ([8]; 125 g ai/ha) | Plant response rating, Waterhemp ([8]; 250 g ai/ha) | Plant response rating, Foxtail, Giant ([13]; 31 g ai/ha) | Plant response rating, Barnyardgrass ([14]; 62 g ai/ha)
50: Plant response rating, Lambsquarters ([3]; 31 g ai/ha) | Plant response rating, Blackgrass ([6]; 31 g ai/ha) | Plant response rating, Blackgrass ([6]; 62 g ai/ha) | Plant response rating, Corn (corn (Zea mays); 62 g ai/ha)
100: Plant response rating, Crabgrass, Large ([1]; 250 g ai/ha) | Plant response rating, Galium ([11]; 125 g ai/ha) | Plant response rating, Galium ([11]; 250 g ai/ha)
70: Plant response rating, Lambsquarters ([3]; 125 g ai/ha) | Plant response rating, Wheat ([4]; 125 g ai/ha) | Plant response rating, Oilseed Rape ([10]; 62 g ai/ha) | Plant response rating, Morningglory ([12]; 250 g ai/ha)
0: Plant response rating, Soybean (soybean (Glycine max); 62 g ai/ha) | Plant response rating, Soybean (soybean (Glycine max); 125 g ai/ha) | Plant response rating, Soybean (soybean (Glycine max); 250 g ai/ha) | Plant response rating, Corn (corn (Zea mays); 31 g ai/ha) | Plant response rating, Nutsedge, Yellow ([15]; 31 g ai/ha) | Plant response rating, Nutsedge, Yellow ([15]; 62 g ai/ha)
98: Plant response rating, Crabgrass, Large ([1]; 62 g ai/ha) | Plant response rating, Crabgrass, Large ([1]; 125 g ai/ha) | Plant response rating, Lambsquarters ([3]; 250 g ai/ha) | Plant response rating, Foxtail, Giant ([13]; 62 g ai/ha) | Plant response rating, Foxtail, Giant ([13]; 125 g ai/ha) | Plant response rating, Foxtail, Giant ([13]; 250 g ai/ha) | Plant response rating, Barnyardgrass ([14]; 125 g ai/ha) | Plant response rating, Barnyardgrass ([14]; 250 g ai/ha)
75: Plant response rating, Lambsquarters ([3]; 62 g ai/ha) | Plant response rating, Corn (corn (Zea mays); 250 g ai/ha)
40: Plant response rating, Velvetleaf ([7]; 62 g ai/ha) | Plant response rating, Morningglory ([12]; 62 g ai/ha)
90: Plant response rating, Wheat ([4]; 250 g ai/ha) | Plant response rating, Pigweed ([5]; 125 g ai/ha) | Plant response rating, Waterhemp ([8]; 62 g ai/ha) | Plant response rating, Galium ([11]; 31 g ai/ha) | Plant response rating, Galium ([11]; 62 g ai/ha)
60: Plant response rating, Velvetleaf ([7]; 250 g ai/ha) | Plant response rating, Morningglory ([12]; 125 g ai/ha)
20: Plant response rating, Nutsedge, Yellow ([15]; 250 g ai/ha)
55: Plant response rating, Ryegrass, Italian ([2]; 62 g ai/ha)
85: Plant response rating, Pigweed ([5]; 31 g ai/ha) | Plant response rating, Ragweed ([9]; 125 g ai/ha) | Plant response rating, Ragweed ([9]; 250 g ai/ha) | Plant response rating, Oilseed Rape ([10]; 250 g ai/ha) | Plant response rating, Barnyardgrass ([14]; 31 g ai/ha)

CN1CC(c2ccc(C(F)(F)F)c(F)c2)C(C(=O)Nc2ccccc2F)C1=O (stereo not drawn) [Compound 399]
70: Plant response rating, Pigweed ([5]; 31 g ai/ha) | Plant response rating, Blackgrass ([6]; 125 g ai/ha) | Plant response rating, Oilseed Rape ([10]; 125 g ai/ha)
80: Plant response rating, Wheat ([4]; 125 g ai/ha) | Plant response rating, Blackgrass ([6]; 62 g ai/ha) | Plant response rating, Waterhemp ([8]; 62 g ai/ha) | Plant response rating, Ragweed ([9]; 250 g ai/ha) | Plant response rating, Galium ([11]; 31 g ai/ha)
90: Plant response rating, Lambsquarters ([3]; 31 g ai/ha) | Plant response rating, Pigweed ([5]; 125 g ai/ha) | Plant response rating, Blackgrass ([6]; 250 g ai/ha) | Plant response rating, Waterhemp ([8]; 125 g ai/ha) | Plant response rating, Galium ([11]; 125 g ai/ha) | Plant response rating, Galium ([11]; 250 g ai/ha)
35: Plant response rating, Corn (corn (Zea mays); 31 g ai/ha) | Plant response rating, Oilseed Rape ([10]; 31 g ai/ha)
30: Plant response rating, Oilseed Rape ([10]; 62 g ai/ha) | Plant response rating, Morningglory ([12]; 125 g ai/ha)
95: Plant response rating, Pigweed ([5]; 250 g ai/ha) | Plant response rating, Foxtail, Giant ([13]; 31 g ai/ha) | Plant response rating, Foxtail, Giant ([13]; 62 g ai/ha) | Plant response rating, Barnyardgrass ([14]; 31 g ai/ha)
60: Plant response rating, Velvetleaf ([7]; 250 g ai/ha) | Plant response rating, Corn (corn (Zea mays); 250 g ai/ha)
100: Plant response rating, Crabgrass, Large ([1]; 125 g ai/ha) | Plant response rating, Crabgrass, Large ([1]; 250 g ai/ha) | Plant response rating, Barnyardgrass ([14]; 125 g ai/ha)
40: Plant response rating, Corn (corn (Zea mays); 62 g ai/ha) | Plant response rating, Morningglory ([12]; 31 g ai/ha) | Plant response rating, Morningglory ([12]; 62 g ai/ha)
0: Plant response rating, Soybean (soybean (Glycine max); 62 g ai/ha) | Plant response rating, Soybean (soybean (Glycine max); 125 g ai/ha) | Plant response rating, Soybean (soybean (Glycine max); 250 g ai/ha) | Plant response rating, Nutsedge, Yellow ([15]; 31 g ai/ha) | Plant response rating, Nutsedge, Yellow ([15]; 62 g ai/ha) | Plant response rating, Nutsedge, Yellow ([15]; 125 g ai/ha) | Plant response rating, Nutsedge, Yellow ([15]; 250 g ai/ha)
55: Plant response rating, Morningglory ([12]; 250 g ai/ha)
50: Plant response rating, Ryegrass, Italian ([2]; 62 g ai/ha) | Plant response rating, Ryegrass, Italian ([2]; 250 g ai/ha) | Plant response rating, Blackgrass ([6]; 31 g ai/ha) | Plant response rating, Velvetleaf ([7]; 125 g ai/ha) | Plant response rating, Ragweed ([9]; 31 g ai/ha) | Plant response rating, Ragweed ([9]; 62 g ai/ha)
75: Plant response rating, Ryegrass, Italian ([2]; 125 g ai/ha) | Plant response rating, Wheat ([4]; 250 g ai/ha) | Plant response rating, Pigweed ([5]; 62 g ai/ha)
20: Plant response rating, Velvetleaf ([7]; 62 g ai/ha)
98: Plant response rating, Crabgrass, Large ([1]; 31 g ai/ha) | Plant response rating, Crabgrass, Large ([1]; 62 g ai/ha) | Plant response rating, Lambsquarters ([3]; 250 g ai/ha) | Plant response rating, Waterhemp ([8]; 250 g ai/ha) | Plant response rating, Foxtail, Giant ([13]; 125 g ai/ha) | Plant response rating, Foxtail, Giant ([13]; 250 g ai/ha) | Plant response rating, Barnyardgrass ([14]; 62 g ai/ha) | Plant response rating, Barnyardgrass ([14]; 250 g ai/ha)
15: Plant response rating, Wheat ([4]; 62 g ai/ha)
65: Plant response rating, Corn (corn (Zea mays); 125 g ai/ha) | Plant response rating, Ragweed ([9]; 125 g ai/ha)
85: Plant response rating, Lambsquarters ([3]; 62 g ai/ha) | Plant response rating, Lambsquarters ([3]; 125 g ai/ha) | Plant response rating, Oilseed Rape ([10]; 250 g ai/ha) | Plant response rating, Galium ([11]; 62 g ai/ha)
